Experimental data as given in patent US8754115B2, “Fungicidal pyrazoles” (E I du Pont de Nemours and Company, priority 2010, dated 2014).
Marks after values point to notes of the source that are not given here.

Key:
Format in all cases: in vivo
[1] = system: Puccinia recondite f. sp. tritici; test: Test E2: preventive spray on wheat seedlings, visual disease rating (wheat leaf rust)
In short: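 Test suspension (acetone 3% of volume, acetone/water 50/50, 250 ppm Trem 014), 200 ppm unless starred (40 ppm), sprayed to run-off on wheat seedlings; inoculated next day with P. recondita spores. 24 h saturated atmosphere at 20 °C, then 7 days at 20 °C; visual rating, 100 = full control vs untreated.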

[2] = system: Puccinia recondite f. sp. tritici; test: Test E1: curative spray on wheat seedlings after inoculation, visual disease rating (wheat leaf rust)
Source text: (§1) General protocol for preparing test suspensions for Tests A-F: the test compounds were first dissolved in acetone in an amount equal to 3% of the final volume and then suspended at the desired concentration (in ppm) in acetone and purified water (50/50 mix by volume) containing 250 ppm of the surfactant Trem® 014 (polyhydric alcohol esters). The resulting test suspensions were then used in Tests A-F. Spraying a 200 ppm test suspension to the point of run-off on the test plants was the equivalent of a rate of 800 g/ha. Unless otherwise indicated, the rating values indicate a 200 ppm test suspension was used. (An asterisk “*” next to the rating value indicates a 40 ppm test suspension was used.)
Wheat seedlings were inoculated with a spore suspension of Puccinia recondite f. sp. tritici (the causal agent of wheat leaf rust) and incubated in a saturated atmosphere at 20° C. for 24 h, and then moved to a growth chamber at 20° C. for 2 days. After 2 days, the test suspension was sprayed to the point of run-off on the wheat seedlings, and then the seedlings were moved back to the growth chamber at 20° C. for 6 days. Upon removal, visual disease ratings were made.
(§2) Results for Tests A-F are given in Table A. In the Table, a rating of 100 indicates 100% disease control and a rating of 0 indicates no disease control (relative to the controls). A dash (-) indicates no test results. An asterisk “*” next to the rating value indicates a 40 ppm test suspension was used.

Septoria tritici = test: Test D: preventive spray on wheat seedlings, visual disease rating (wheat leaf blotch)
In short: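 Wheat seedlings were sprayed to run-off with a 200 ppm suspension (equal to 800 g/ha), or 40 ppm where marked with an asterisk, and inoculated with Septoria tritici spores the next day. Plants were kept at 24 °C in saturated air for 48 h, then at 20 °C for 19 days. Disease control was rated visually from 0 to 100 relative to controls.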

[3] = system: Blumeria graminis f. sp. tritici; test: Test F: preventive spray on wheat seedlings, visual disease rating (wheat powdery mildew)
In short: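 Compound in acetone/water (50/50) with 250 ppm surfactant, sprayed to run-off on wheat seedlings at 200 ppm (≈800 g/ha) or, where marked, 40 ppm. Seedlings dusted with spores the next day, kept 8 days at 20° C., then rated visually as % disease control versus untreated plants.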

Botrytis cinerea = test: Test A: preventive spray on tomato seedlings, visual disease rating (tomato Botrytis)
In short: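 Tomato seedlings sprayed to run-off with 200 ppm suspension (800 g/ha; asterisk marks 40 ppm), inoculated next day with Botrytis cinerea spores, held 48 h saturated at 20 °C then 3 days at 24 °C. Visual rating: 100 = full disease control, 0 = none, relative to controls.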

Alternaria solani = test: Test B: preventive spray on tomato seedlings, visual disease rating (tomato early blight)
Source text: as §1
(§3) The test suspension was sprayed to the point of run-off on tomato seedlings. The following day the seedlings were inoculated with a spore suspension of Alternaria solani (the causal agent of tomato early blight) and incubated in a saturated atmosphere at 27° C. for 48 h, and then moved to a growth chamber at 20° C. for 5 days, after which time visual disease ratings were made.
as §2

Septoria nodorum = test: Test C: preventive spray on wheat seedlings, visual disease rating (Septoria glume blotch)
Source text: as §1
as §3, with “wheat” for “tomato”, “Septoria nodorum” for “Alternaria solani”, “Septoria glume blotch)” for “tomato early blight)”, “24°” for “27°”, “6” for “5”
as §2

[4] = no asterisk: standard test suspension, not 40 ppm
[5] = no asterisk: standard test suspension, not 40 ppm, 100 = 100% disease control, 0 = none
[6] = asterisk: 40 ppm test suspension

Row | Compound | Test E2 rating (% disease control) [1, 4] | Test E1 rating (% disease control) [2, 4] | Test D rating (% disease control) (Septoria tritici; [4]) | Test F rating (% disease control) [3, 4] | Test A rating (% disease control) (Botrytis cinerea; [5]) | Test B rating (% disease control) (Alternaria solani; [4]) | Test C rating (% disease control) (Septoria nodorum; [4]) | also measured
1 | Cc1nn(C)c(-c2ccc(F)cc2Cl)c1Nc1ccc(F)cc1Cl [compound 42] | 99% | 32% | 100% | 100% | 99% | 99% | 0% | 
2 | Cc1nn(C)c(-c2c(F)cccc2F)c1C(O)c1ccc(C#N)cc1F (stereo not drawn) [compound 22] | 88% | 17% | 100% | 0% | 88% | 84% | 0% | 
3 | Cc1nn(C)c(-c2ccccc2Br)c1C(=O)c1ccc(F)cc1Cl [compound 78] | 79% | 0% | 0% | 99% | 0% | 31% | 40% | 
4 | COC(c1ccc(F)cc1Cl)c1c(C)nn(C)c1-c1c(F)cccc1Cl (stereo not drawn) [Compound 67] | 90% | 28% | 100% | 100% | 57% | 9% | 0% | 
5 | Cc1nn(C)c(-c2c(F)cccc2F)c1Nc1ccc(Cl)cc1Cl [compound 65] | 89% | 9% | 100% | 100% | 100% | 0% | 0% | 
6 | Cc1nn(C)c(-c2c(F)cc(F)cc2F)c1C(O)c1ccc(F)cc1F (stereo not drawn) [compound 66] | 100% | 55% | 100% | 99% | 100% | 100% | 95% | 
7 | Cc1nn(C)c(-c2c(F)cc(F)cc2F)c1C(O)c1ccc(F)cc1Cl (stereo not drawn) [compound 61] | 100% | 99% | 100% | 100% | 100% | 100% | 99% | 
8 | Cc1nn(C)c(-c2c(F)cccc2Cl)c1C(=O)c1ccc(F)cc1F [compound 28] | 8% | 0% | 0% | 79% | 56% | 0% | 0% | 
9 | Cc1nn(C)c(-c2c(F)cccc2F)c1C(O)c1ccc(F)cc1Cl (single isomer, unassigned) [compound 87] | 99% |  |  | 99% | 100% |  | 100% | Test E1 rating (% disease control) [2, 6]: 0* %; Test D rating (% disease control) (Septoria tritici; [6]): 99* %; Test B rating (% disease control) (Alternaria solani; [6]): 0* %
10 | Cc1nn(C)c(-c2ccc(C#N)cc2F)c1Oc1ccc(F)cc1F [compound 26] | 79% | 0% |  | 64% | 100% | 0% | 0% | 
11 | Cc1nn(C)c(-c2c(F)cccc2Cl)c1C(=O)c1ccc(Cl)cc1Cl [compound 27] | 0% | 0% | 0% | 81% | 0% | 0% | 0% | 
12 | α-(2,4-difluorophenyl)-5-(2,6-difluorophenyl)-1,3-dimethyl-1H-pyrazole-4-methanol [Compound 14] | 98% | 75% | 100% | 97% | 98% | 0% | 0% | 
13 | Cc1nn(C)c(-c2c(F)cccc2F)c1C(Cl)c1ccc(F)cc1Cl (stereo not drawn) [Compound 84] |  |  |  |  |  |  |  | Test E2 rating (% disease control) [1, 6]: 100* %; Test E1 rating (% disease control) [2, 6]: 41* %; Test D rating (% disease control) (Septoria tritici; [6]): 100* %; Test F rating (% disease control) [3, 6]: 100* %; Test A rating (% disease control) (Botrytis cinerea; [6]): 96* %; Test B rating (% disease control) (Alternaria solani; [6]): 100* %; Test C rating (% disease control) (Septoria nodorum; [6]): 99* %
14 | Cc1nn(C)c(-c2ccc(F)cc2Cl)c1C(O)c1ccc(F)cc1Cl (stereo not drawn) [compound 18] | 100% | 100% | 100% | 100% | 100% | 83% | 0% | 
15 | Cc1nn(C)c(-c2c(F)cc(F)cc2F)c1C(=O)c1ccc(F)cc1Cl [compound 59] | 80% | 0% | 58% | 100% | 66% | 0% | 0% | 
16 | 3-bromo-5-(2-chloro-4-fluorophenyl)-α-(2,4-difluorophenyl)-1-methyl-1H-pyrazole-4-methanol [Compound 30] | 100% | 100% | 100% | 99% | 100% | 0% | 0% | 
17 | Cc1nn(C)c(-c2c(F)cccc2Cl)c1C(C)(O)c1ccc(F)cc1F (stereo not drawn) [Compound 29] | 100% | 0% |  | 96% | 100% | 64% | 0% | 
18 | Cc1nn(C)c(-c2ccc(F)cc2F)c1C(O)c1ccc(F)cc1F (stereo not drawn) [Compound 72, α-(2,4-difluorophenyl)-5-(2,4-difluorophenyl)-1,3-dimethyl-1H-pyrazole-4-methanol] |  |  |  |  |  |  |  | pest or weed control at 40 ppm ([1]; 192 h, asterisk: 40 ppm test suspension): 96%; pest or weed control at 40 ppm ([2]; 144 h, asterisk: 40 ppm test suspension): 18%; pest or weed control at 40 ppm (Septoria tritici; Zymoseptoria tritici, 504 h, asterisk: 40 ppm test suspension): 100%; pest or weed control at 40 ppm ([3]; Blumeria graminis, 192 h, asterisk: 40 ppm test suspension): 98%; pest or weed control at 40 ppm (Alternaria solani; Alternaria solani, 168 h, asterisk: 40 ppm test suspension): 53%; pest or weed control at 40 ppm (Septoria nodorum; Parastagonospora nodorum, 192 h, asterisk: 40 ppm test suspension): 0%
19 | Cc1nn(C)c(-c2c(F)cccc2Cl)c1C(F)c1c(F)cc(F)cc1F (stereo not drawn) [Compound 75] |  |  |  |  |  |  |  | Test E2 rating (% disease control) [1, 6]: 100* %; Test E1 rating (% disease control) [2, 6]: 74* %; Test D rating (% disease control) (Septoria tritici; [6]): 100* %; Test F rating (% disease control) [3, 6]: 99* %; Test B rating (% disease control) (Alternaria solani; [6]): 100* %; Test C rating (% disease control) (Septoria nodorum; [6]): 87* %
20 | Cc1nn(C)c(-c2c(Cl)cccc2Cl)c1C(O)c1c(F)cc(F)cc1F (stereo not drawn) [compound 70] | 100% | 94% | 100% | 99% |  | 99% | 60% | 
